Source: patent US20180015051A1, “MODULATORS OF ALPHA-DICARBONYL DETOXIFICATION AND THEIR USE FOR THE TREATMENT OF DIABETIC PATHOLOGIES” (Buck Institute for Research on Aging, priority 2016, published 2018)

Columns and labels:
[1] = mice and humans; Gomes and Negrato (2014); cited from earlier work
[2] = test system: C. elegans; test: Swim-bend assay (body bends in liquid media); format: in vivo, Caenorhabditis elegans; conditions: N2 animals; 7 mM MGO vs water
[3] = target: T1, TRPA1 (RAT) (Rattus norvegicus, UniProt Q6RI86); test: Calcium imaging of HEK293T cells (Rhod-3 AM), rat TRPA1; format: cell-based; conditions: HEK293T transfected with rat TRPA1 and GFP; 100 pM or 1 mM MGO
T1 construct: expressed in transfected cells; host or cells: HEK293T
Protocol: (§1) Appropriate HEK293T-derived cells were seeded on collagen-coated glass bottom culture dishes (MatTek Corporation). Cells were loaded with 10 pM of Rhod-3 AM (Life Technology) for 30 min at 37° C. After 30 min they were washed twice with standard Tyrode's solution (135 mM NaCl, 4 mM KCl, 10 mM glucose, 10 mM HEPES, 2 mM CaCl2, and 1 mM MgCl2 at pH=7.4) at room temperature. Calcium imaging was performed on an Olympus BX51WI Axiovert microscope under a 60× objective. Fluorescent images were documented upon sequential excitation with 555 nm followed by 484 nm with a Roper CoolSnap CCD camera. After establishing a baseline 555/484 ratio, methylglyoxal or other agonists were diluted with Tyrode's solution (100 pM or 1 mM final concentration) and were perfused into cells. Images were processed with the MetaFlour (Olympus) software.

[4] = test system: GLOD-4/GLO1; test: Glod-4p::gfp expression assay; format: in vivo, Caenorhabditis elegans; conditions: EV, skn-1, or trpa-1 RNAi; MGO (7 mM) vs water
Protocol: Transgenic adult animals carrying glod-4p::gfp were assayed. Fluorescent intensity was calculated by background subtraction and quantified for the same region of interest across individual animals. All quantification was done using Image J™ software (//imagei.nih.gov/ii/).

[5] = test system: native HEK293T cells; test: Calcium imaging of native HEK293T cells (GFP only); format: cell-based
Protocol: as §1

[6] = test system: 50B11 cells (immortalized rat DRG neuronal cells); test: MGO-mediated neurotoxicity in differentiated 50B11 cells (DIC imaging, neurite length, soma size); format: cell-based; conditions: 20-24 h
Protocol: 50B11 cells (immortalized rat DRG neuronal cells) maintain self-replication capability over many cell divisions (>300). The results described in this article were obtained with cells between 100 and 400 passages. Cells were grown in antibiotic treated complete Neurobasal media containing glucose, L-glutamine, Fetal Bovine Serum (FBS), B-27 supplement, and nerve growth factor (NGF) (100 ng/ml). Differentiation and axonal elongation was induced by addition of forskolin (75 pM) into the culture medium. […] Methylglyoxal was administered at a final concentration of 250 pM for 20-24 h post-differentiation of the cells. Podocarpic acid was added at a final concentration of 250 pM and incubated for the same period with or without methylglyoxal. Ethanol was used as a vehicle control. […] Neurite outgrowth was quantified by manually measuring the length of a projection from the edge of the cell body; a neurite was defined as a thin projection longer than the diameter of the associated cell body. Area of soma or cell body was measured excluding the neurite projections. Images were processed using Image Analyst MKII software (www.imageanalyst.net/) and quantification was done using Image J software (//imagei.nih.gov/ij/). 75-100 cells selected randomly were considered for quantification under each experimental condition.

[7] = test system: DAF-16/FOXO; test: DAF-16::GFP nuclear localization; format: in vivo, Caenorhabditis elegans; conditions: 7 mM MGO vs water; heat shock positive control
Protocol: FIG. 11, panels A-E, SKN-1/Nrf2 activation due to exogenous MGO treatment and specificity of downstream response to a-DC stress. Related to FIG. 3. (A) Quantification (left) and fluorescence microscopy images (right) of GFP foci in gst-4p::gfp animals reared on empty vector (EV, L4440) or skn-1 RNAi supplemented with water (control) or 7 mM MGO. Foci are marked by white arrows. n=91. Scale bar 0.15 mm. […] Animals were categorized as follows: ‘high’ for strong GFP signal throughout the intestine, ‘medium’ for GFP signal in the anterior or posterior section of the intestine and ‘low’ for weak or no signal. n=100. (C) qPCR analysis of SKN-1 target genes, gst-4 and gcs-1 in N2 animals reared on EV or skn-1 RNAi supplemented with water (control, −) or 7 mM MGO (+). The data is normalized to the corresponding expression levels in N2 (EV, water), represented by the dotted line. (D) Fluorescence microscopy images depicting nuclear localization of DAF-16::GFP and SKN-1::GFP supplemented with water (control) or 7 mM MGO. Heat shock was used as a positive control to drive DAF-16 nuclear localization. Red arrows point towards nuclear localized transcription factors (SKN-1 and DAF-16). Scale bar 20 pm. (E) Fluorescence microscopy images to observe GFP foci in glod-4;gst-4p::gfp animals reared on empty vector (EV, L4440), sgk-1, sek-1, or pmk-1 RNAi. Scale bar 20 pm.

T1 sequence (Q6RI86 whole entry): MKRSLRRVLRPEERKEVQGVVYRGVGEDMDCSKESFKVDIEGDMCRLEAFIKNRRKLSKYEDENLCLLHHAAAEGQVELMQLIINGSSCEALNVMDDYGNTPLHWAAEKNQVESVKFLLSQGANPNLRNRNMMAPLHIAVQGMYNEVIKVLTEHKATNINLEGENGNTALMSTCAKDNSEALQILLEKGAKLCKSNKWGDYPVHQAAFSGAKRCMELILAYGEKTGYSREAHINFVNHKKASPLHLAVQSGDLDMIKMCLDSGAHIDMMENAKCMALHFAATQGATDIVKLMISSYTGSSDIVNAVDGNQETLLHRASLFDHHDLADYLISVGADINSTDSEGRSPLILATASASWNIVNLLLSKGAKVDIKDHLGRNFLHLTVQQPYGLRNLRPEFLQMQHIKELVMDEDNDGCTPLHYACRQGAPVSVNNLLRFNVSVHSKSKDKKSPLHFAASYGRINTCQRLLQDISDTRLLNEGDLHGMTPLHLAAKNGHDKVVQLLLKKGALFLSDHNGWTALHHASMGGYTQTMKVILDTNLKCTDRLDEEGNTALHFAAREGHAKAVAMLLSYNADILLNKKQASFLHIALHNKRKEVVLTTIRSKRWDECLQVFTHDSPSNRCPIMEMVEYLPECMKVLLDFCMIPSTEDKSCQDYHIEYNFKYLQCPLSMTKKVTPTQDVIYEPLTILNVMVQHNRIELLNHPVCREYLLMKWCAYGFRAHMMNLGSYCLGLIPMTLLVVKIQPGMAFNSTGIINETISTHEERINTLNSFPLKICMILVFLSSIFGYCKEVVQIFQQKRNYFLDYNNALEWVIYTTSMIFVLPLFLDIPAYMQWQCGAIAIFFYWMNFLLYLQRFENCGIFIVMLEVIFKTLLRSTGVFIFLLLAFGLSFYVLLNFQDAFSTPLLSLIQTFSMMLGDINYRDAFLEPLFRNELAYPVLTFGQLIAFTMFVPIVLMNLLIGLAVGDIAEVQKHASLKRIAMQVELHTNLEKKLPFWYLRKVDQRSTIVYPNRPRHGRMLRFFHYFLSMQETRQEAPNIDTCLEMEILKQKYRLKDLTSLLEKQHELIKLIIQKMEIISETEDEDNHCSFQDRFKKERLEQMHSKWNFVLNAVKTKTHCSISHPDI

SMILES: O=C(O)CCCCC1CCSS1 (stereo not drawn) [LA, a-lipoic acid]
- Effect on diabetic complications [1]: documented to ameliorate diabetic complications

SMILES: CC(=O)C=O [MGO, methylglyoxal]
- Motility (number of body bends in liquid media) [2]: lower motility
- Ca2+ flux (Rhod-3 AM fluorescence ratio 555/484 nm) [3]: induce a similar Ca^2+ flux
- glod-4p::gfp reporter expression (GFP intensity) [4]: trpa-1- and skn-1 -dependent increase in expression
- Ca2+ flux in native HEK293T cells (Rhod-3 AM) [5]: neither compounds resulted in Ca^+2 flux
- Neurite length (neurite outgrowth) ([6]; MGO 250 pM): significant retraction of neurite outgrowths
- Soma size (cell bodies) ([6]; MGO 250 pM): shrinkage in cell bodies
- DAF-16/FOXO nuclear localization [7]: failed to trigger

SMILES: C[C@]1(C(=O)O)CCC[C@]2(C)c3cc(O)ccc3CC[C@@H]12 [PA, podocarpic acid]
- MGO-induced neurotoxic phenotypes (cell body size, neurite outgrowth) ([6]; PA and MGO each at 250 pM): ameliorate these MGO-induced neurotoxic phenotypes
